The results in this text go back to patent US12441704B2, “Compounds active towards nuclear receptors” (NUEVOLUTION A/S, priority 2019, dated 2025).

Like-named read-outs stand apart in the source and are kept apart here. Where only a bound is given, the exact number is not on record here.

This experiment concerns the target T1, RORγ ligand-binding domain fused to Gal4 (Homo sapiens, UniProt P51449).
T1 construct: Gal4 (galactose-responsive transcription factor); expressed in transfected cells; host or cells: HEK293
T1 sequence (P51449 269-508 limits assumed): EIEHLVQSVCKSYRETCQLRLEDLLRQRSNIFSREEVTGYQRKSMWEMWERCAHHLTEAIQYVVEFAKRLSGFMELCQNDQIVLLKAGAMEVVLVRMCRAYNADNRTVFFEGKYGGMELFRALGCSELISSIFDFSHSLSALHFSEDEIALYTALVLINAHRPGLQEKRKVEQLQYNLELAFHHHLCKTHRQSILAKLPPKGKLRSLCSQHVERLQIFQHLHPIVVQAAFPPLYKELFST
Nature of the experiment: RORγ Reporter Assay (Gal4). It counts as cell-based. On the procedure: The HEK293 cell line is co-transfected transiently with two plasmids, one with the RORγ ligand-binding domain fused to galactose-responsive transcription factor (Gal4), and the other with the luciferase reporter gene and Gal binding sites (UAS). This construction allows to determine the RORγ activity in a cellular system through the measurement of luminescence.
A suspension of RORγ reporter cells was dispensed into plates and cultured 2 h at 37° C. and 5% CO2. Media formulation consisted in DMEM/F-12 medium (Gibco) supplemented with 10% heat inactivated FBS (Sigma-Aldrich), non-essential aminoacids (Sigma-Aldrich), 2 mM Glutamax (Gibco) and 100 U/mL penicillin (Sigma-Aldrich). Dose-response curves with compounds were prepared in 100% DMSO and further diluted 100-fold in culture medium. Compound solutions were added to the plate containing cells (final DMSO concentration of 0.1%) and incubated for 24 h at 37° C. and 5% CO2. Luciferase detection reagent was added to each well, and relative light units (RLUs) were quantified from each assay well using a plate reading luminometer.
Values of average RLU±S.D. were computed for all treatment sets, followed by the calculations of percent-reduction of RORγ activity in response to respective test compound. The following formula was used: activity=100*[1−[x test compound/average vehicle] where the theoretical minimum reduction (0% reduction).
For orientation: A reporter such as luciferase makes a cellular process visible.

Setting [1] is: HEK293 cells co-transfected with RORγ LBD-Gal4 and luciferase reporter, 24 h incubation, absolute EC50, read-out: EC50.

Take `NC(=O)CN1CC[C@H](CNc2ncnc(N(Cc3cnc(C(F)(F)F)nc3)C3CCC3)c2F)[C@@H](O)C1` (racemic) [Example A7-18, rac-2-((3R,4R)-4-(((6-(cyclobutyl((2-(trifluoromethyl)pyrimidin-5-yl)methyl)amino)-5-fluoropyrimidin-4-yl)amino)methyl)-3-hydroxypiperidin-1-yl)acetamide]: under setting [1], the EC50 came out at 130 nM.
Consider `CC(C)N(Cc1ccc(C(F)(F)F)cc1)c1ncnc(NC[C@H]2CCN(CC(N)=O)C[C@@H]2O)c1F` (racemic) [Example A7-19, rac-2-((3R,4R)-4-(((5-fluoro-6-(isopropyl(4-(trifluoromethyl)benzyl)amino)pyrimidin-4-yl)amino)methyl)-3-hydroxypiperidin-1-yl)acetamide], for which the EC50 under setting [1] was 42 nM.
In the case of `CN(Cc1ccc(C(F)(F)F)cc1)c1ncnc(NC[C@H]2CCN(CC(N)=O)C[C@@H]2O)c1F` (racemic) [Example A7-20, rac-2-((3R,4R)-4-(((5-fluoro-6-(methyl(4-(trifluoromethyl)benzyl)amino)pyrimidin-4-yl)amino)methyl)-3-hydroxypiperidin-1-yl)acetamide], the EC50 under setting [1] was 26 nM.
As for `NC(=O)CN1CC[C@H](CNc2ncnc(N(Cc3ccc(C(F)(F)F)cc3F)C3CC3)c2F)[C@@H](O)C1` (racemic) [Example A7-22, rac-2-((3R,4R)-4-(((6-(cyclopropyl(2-fluoro-4-(trifluoromethyl)benzyl)amino)-5-fluoropyrimidin-4-yl)amino)methyl)-3-hydroxypiperidin-1-yl)acetamide], the EC50 under setting [1] turned out to be 4 nM.
For the molecule `NC(=O)CN1CC[C@@H](CNc2ncnc(N(Cc3ccc(C(F)(F)F)nc3)C3CCC3)c2F)[C@H](O)C1` (racemic) [Example A7-23, rac-2-((3R,4R)-4-(((6-(cyclobutyl((6-(trifluoromethyl)pyridin-3-yl)methyl)amino)-5-fluoropyrimidin-4-yl)amino)methyl)-3-hydroxypiperidin-1-yl)acetamide], the EC50 under setting [1] came out at 81 nM.
Regarding `NC(=O)CN1CC[C@@H](CNc2ncnc(N(Cc3ccc(C(F)(F)F)cn3)C3CCC3)c2F)[C@H](O)C1` (racemic) [Example A7-24, rac-2-((3R,4R)-4-(((6-(cyclobutyl((5-(trifluoromethyl)pyridin-2-yl)methyl)amino)-5-fluoropyrimidin-4-yl)amino)methyl)-3-hydroxypiperidin-1-yl)acetamide], the EC50 under setting [1] was 120 nM.
`CCN(Cc1ccc(C(F)(F)F)cn1)c1ncnc(NC[C@@H]2CCN(CC(N)=O)C[C@H]2O)c1F` (racemic) [Example A7-27, rac-2-((3R,4R)-4-(((6-(ethyl((5-(trifluoromethyl)pyridin-2-yl)methyl)amino)-5-fluoropyrimidin-4-yl)amino)methyl)-3-hydroxypiperidin-1-yl)acetamide]: the half-maximal effective concentration (EC50) under setting [1] stood at 540 nM.
As for `NC(=O)CN1CC[C@@H](CNc2ncnc(N(CCF)Cc3ccc(C(F)(F)F)cc3)c2F)[C@H](O)C1` (racemic) [Example A7-30, rac-2-((3R,4R)-4-(((5-fluoro-6-((2-fluoroethyl)(4-(trifluoromethyl)benzyl)amino)pyrimidin-4-yl)amino)methyl)-3-hydroxypiperidin-1-yl)acetamide], the EC50 under setting [1] was over 1000 nM.
The same measure, in the same setting: as for `NC(=O)CN1CC[C@@H](CNc2ncnc(N(Cc3ccc(C(F)(F)F)cc3)C3CC3)c2F)[C@@H](O)C1` (racemic) [Example A7-49, rac-2-((3R,4S)-4-(((6-(cyclopropyl(4-(trifluoromethyl)benzyl)amino)-5-fluoropyrimidin-4-yl)amino)methyl)-3-hydroxypiperidin-1-yl)acetamide], the figure is 168 nM; as for `NC(=O)C(C1CCOCC1)N1CC[C@@H](CNc2ncnc(N(Cc3ccc(C(F)(F)F)cc3)C3CC3)c2F)[C@H](O)C1` (mixture of isomers) [Example A7-71, rac-2-((3R,4R)-4-(((6-(Cyclopropyl(4-(trifluoromethyl)benzyl)amino)-5-fluoropyrimidin-4-yl)amino)methyl)-3-hydroxypiperidin-1-yl)-2-(tetrahydro-2H-pyran-4-yl)acetamide], 3.9 nM.
Same read-out and setting: next, `CCN(Cc1ccc(-c2cnn(C)c2)cc1)c1ncnc(NC[C@@H]2CCN(CC(N)=O)C[C@H]2O)c1F` (racemic) [Example A7-72, rac-2-((3R,4R)-4-(((6-(ethyl(4-(1-methyl-1H-pyrazol-4-yl)benzyl)amino)-5-fluoropyrimidin-4-yl)amino)methyl)-3-hydroxypiperidin-1-yl)acetamide]: 52 nM.
Regarding `CCN(Cc1ccc(-c2cnn(CCO)c2)cc1)c1ncnc(NC[C@@H]2CCN(CC(N)=O)C[C@H]2O)c1F` (racemic) [Example A7-73, rac-2-((3R,4R)-4-(((6-(ethyl(4-(1-(2-hydroxyethyl)-1H-pyrazol-4-yl)benzyl)amino)-5-fluoropyrimidin-4-yl)amino)methyl)-3-hydroxypiperidin-1-yl)acetamide], the EC50 under setting [1] turned out to be 99 nM.
Take `CCN(Cc1ccc(C(F)(F)CO)cc1)c1ncnc(NC[C@@H]2CCN(CC(N)=O)C[C@H]2O)c1F` (racemic) [Example A7-79, rac-2-((3R,4R)-4-(((6-((4-(1,1-difluoro-2-hydroxyethyl)benzyl)(ethyl)amino)-5-fluoropyrimidin-4-yl)amino)methyl)-3-hydroxypiperidin-1-yl)acetamide]: the half-maximal effective concentration (EC50) under setting [1] was determined as 164 nM.
With `CN(Cc1cccc(OC(F)(F)F)c1)c1ncnc(NC[C@@H]2CCN(CC(N)=O)C[C@H]2O)c1F` (racemic) [Example F2-07, rac-2-((3R,4R)-4-(((5-fluoro-6-(methyl(3-(trifluoromethoxy)benzyl)amino)pyrimidin-4-yl)amino)methyl)-3-hydroxypiperidin-1-yl)acetamide], the EC50 (compounds of the present disclosure, value from Table 2 herein, read-out: Gal4 assay EC50) is under 100 nM.
As for `NC(=O)CN1CC[C@H](CNc2ncnc(N(Cc3ccc(C(F)(F)F)cn3)C3CC3)c2F)[C@@H](F)C1` (relative stereo) [Example A7-04-2, rel-2-((3R,4R)-4-(((6-(cyclopropyl((5-(trifluoromethyl)pyridin-2-yl)methyl)amino)-5-fluoropyrimidin-4-yl)amino)methyl)-3-fluoropiperidin-1-yl)acetamide], under setting [1], the EC50 was 89 nM.
Regarding `NC(=O)CN1CC[C@H](CNc2ncnc(N(Cc3ccc(C(F)(F)F)cc3)C3CC3)c2F)[C@@H](F)C1` (relative stereo) [Example A7-05-2, rel-2-((3R,4R)-4-(((6-(cyclopropyl(4-(trifluoromethyl)benzyl)amino)-5-fluoropyrimidin-4-yl)amino)methyl)-3-fluoropiperidin-1-yl)acetamide], the EC50 under setting [1] was 14 nM.
Take `CC(C)N(Cc1ccc(C(F)(F)F)cc1)c1ncnc(NC[C@H]2CCN(CC(N)=O)C[C@@H]2O)c1F` (relative stereo) [Example A7-19-1, rel-2-((3R,4R)-4-(((5-fluoro-6-(isopropyl(4-(trifluoromethyl)benzyl)amino)pyrimidin-4-yl)amino)methyl)-3-hydroxypiperidin-1-yl)acetamide]: the EC50 under setting [1] was 40 nM.
The same measure, in the same setting: next, `CC(F)(F)c1ccc(CN(c2ncnc(NC[C@H]3CCN(CC(N)=O)C[C@@H]3O)c2F)C2CC2)cn1` (relative stereo) [Example A7-29-2, rel-2-((3R,4R)-4-(((6-(cyclopropyl((6-(1,1-difluoroethyl)pyridin-3-yl)methyl)amino)-5-fluoropyrimidin-4-yl)amino)methyl)-3-hydroxypiperidin-1-yl)acetamide]: 70 nM.
`CCN(Cc1ccc(C(F)(F)F)cc1)c1ncnc(NC[C@@H]2CCN(C(CCO)C(N)=O)C[C@H]2O)c1F` (relative stereo) [Example A7-67, rel-2-((3R,4R)-4-(((6-(ethyl(4-(trifluoromethyl)benzyl)amino)-5-fluoropyrimidin-4-yl)amino)methyl)-3-hydroxypiperidin-1-yl)-4-hydroxybutanamide]: the EC50 under setting [1] was 43 nM.
Turning to `NC(=O)CN1CC[C@@](O)(CNc2ncnc(N(Cc3ccc(C(O)(C(F)(F)F)C(F)(F)F)cc3)C3CC3)c2F)[C@H](O)C1` (relative stereo) [Example D5-06, rel-2-((3R,4R)-4-(((6-(cyclopropyl(4-(1,1,1,3,3,3-hexafluoro-2-hydroxypropan-2-yl)benzyl)amino)-5-fluoropyrimidin-4-yl)amino)methyl)-3,4-dihydroxypiperidin-1-yl)acetamide], the EC50 under setting [1] is 16 nM.
Turning to `NC(=O)CN1CC[C@](O)(CNc2ncnc(N(Cc3ccccc3F)C3CC3)c2F)[C@@H](O)C1` (relative stereo) [Example D5-10, rel-2-((3R,4R)-4-(((6-(cyclopropyl(2-fluorobenzyl)amino)-5-fluoropyrimidin-4-yl)amino)methyl)-3,4-dihydroxypiperidin-1-yl)acetamide], the half-maximal effective concentration (EC50) under setting [1] is over 1000 nM.
On to `NC(=O)CN1CC[C@H](CNc2ncnc(N(Cc3ccc(C(F)(F)F)cc3)C3CC3)c2F)[C@@H](F)C1` (single isomer, unassigned) [Example A7-05-1], for which the EC50 (compounds of the present disclosure, source: Table 2 herein, read-out: Gal4 assay EC50) is under 100 nM.

In general, EC50 refers to the concentration that produces a half-maximal response.
